Here are results for ten compounds from ChEMBL document CHEMBL1201862, “PubChem BioAssay data set” (2004).

Structures can show the parent of a compound that is named as a salt.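 96-well plates; 48 h exposure; 5 concentrations. Endpoints by linear interpolation between flanking doses. Not reached: highest tested concentration assigned. At the GI50, growth is halved.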 Activity calls are given as the source filed them. Rule as the data show it: active = GI50 up to about 1.1 µM and inactive = higher.

Among the test systems are EKVX; NCI/ADR-RES; SK-OV-3; HCT-116; KM12; HT-29; 786-0; OVCAR-4; OVCAR-3; UACC-62; NCI-H23; TK-10; MDA-N; DU-145; HL-60; A549; OVCAR-8; OVCAR-5; HOP-92; COLO 205.
Holding throughout (assay): NCI anticancer screen, dose series, 48 h

In the case of `O=C1c2c(O)cccc2-c2nn(CCNCCO)c3ccc(NCCNCCO)c1c23` [LOSOXANTRONE HYDROCHLORIDE], the GI50 in the assay on EKVX was 0.867 µM (active); in the assay on NCI/ADR-RES, 8.28 µM (inactive); in the assay with SK-OV-3, 0.0735 µM (active); with HCT-116, 0.043 µM (active); with KM12, 0.59 µM (active); in the assay with HT-29 it was 0.303 µM (active). For the same compound, the GI50 in the assay on 786-0 was < 0.0185 µM (active); in the assay on OVCAR-4, 0.605 µM (active); in the assay with OVCAR-3, 0.598 µM (active); in the assay on UACC-62, < 0.0451 µM (active); in the assay with NCI-H23 it was 0.0338 µM (active); in the assay with TK-10, 0.685 µM (active). Moreover, the GI50 was 0.48 µM (active) in the assay with MDA-N; < 0.01 µM (active) in the assay with DU-145; < 0.01 µM (active) in the assay with HL-60; < 0.01 µM (active) in the assay with A549; 0.159 µM (active) with OVCAR-8; 0.29 µM (active) in the assay with OVCAR-5. The GI50 in the assay on HOP-92 is 0.0285 µM (active); in the assay on COLO 205 it was 0.158 µM (active).
As for `Oc1ccc(O)c(CNc2ccccc2)c1`, the GI50 is 18.7 µM (inactive) in the assay with EKVX; 7.01 µM (inactive) in the assay with NCI/ADR-RES; 19.2 µM (inactive) in the assay with SK-OV-3; 7.26 µM (inactive) in the assay with HCT-116; 5.13 µM (inactive) in the assay on KM12; 32.2 µM (inactive) in the assay on HT-29. Further, the GI50 was 10.3 µM (inactive) in the assay on 786-0; 13 µM (inactive) with OVCAR-4; 4.62 µM (inactive) in the assay with OVCAR-3; 13.3 µM (inactive) with UACC-62; 10.2 µM (inactive) in the assay on NCI-H23; 22.7 µM (inactive) with TK-10. Besides, the GI50 in the assay on MDA-N was 3.85 µM (inactive); in the assay with DU-145 it was 12.3 µM (inactive); in the assay with HL-60 it was 2.67 µM (inactive); in the assay with A549 it was 26.4 µM (inactive); in the assay with OVCAR-8, 8.02 µM (inactive); with OVCAR-5 it was 21.6 µM (inactive). In addition, the GI50 in the assay with HOP-92 is 5.07 µM (inactive); in the assay on COLO 205, 18.8 µM (inactive).
Consider `CS(=O)(=O)OCCN(CCOS(C)(=O)=O)c1ccc(/C=N/c2ccc(-c3csc(COc4ccccc4)n3)cc2)cc1`, for which the GI50 with EKVX was 5.5 µM (inactive); with NCI/ADR-RES, 10.1 µM (inactive); in the assay on SK-OV-3 it was 1.69 µM (inactive); in the assay with HCT-116, 12.6 µM (inactive); in the assay on KM12 it was 4.78 µM (inactive); with HT-29 it was 4.31 µM (inactive). The GI50 is 0.429 µM (active) in the assay on 786-0; 14.8 µM (inactive) with OVCAR-4; 1.24 µM (inactive) with OVCAR-3; 1.87 µM (inactive) in the assay on UACC-62; 2.21 µM (inactive) in the assay with NCI-H23; 3.05 µM (inactive) with TK-10. Besides, the GI50 in the assay on MDA-N is 11 µM (inactive); in the assay on DU-145, 1.64 µM (inactive); in the assay on HL-60, 0.817 µM (active); in the assay with A549 it was 3.21 µM (inactive); in the assay with OVCAR-8, 6.17 µM (inactive); in the assay with OVCAR-5, 3.73 µM (inactive). The GI50 in the assay on HOP-92 is 15.6 µM (inactive); with COLO 205 it was 2.07 µM (inactive).
Turning to `c1cc(Sc2nc(Sc3ccncc3)nc(Sc3ccncc3)n2)ccn1`, the GI50 in the assay with EKVX, with NCI/ADR-RES, in the assay on SK-OV-3, in the assay on HCT-116, in the assay with KM12 and with HT-29 was > 100 µM (inactive) in each case. For the same compound, the GI50 in the assay on 786-0, in the assay on OVCAR-4, in the assay on OVCAR-3, with UACC-62, with NCI-H23 and with TK-10 was > 100 µM (inactive) each time. Moreover, the GI50 in the assay with MDA-N, with DU-145, in the assay with HL-60, with A549, in the assay on OVCAR-8 and with OVCAR-5 was > 100 µM (inactive) each time. The GI50 in the assay with HOP-92 and in the assay with COLO 205 was > 100 µM (inactive) in each case.
Regarding `[O-]c1c[n+](CC[n+]2cc([O-])on2)no1`, the GI50 with EKVX, in the assay on NCI/ADR-RES, in the assay with SK-OV-3, in the assay with HCT-116, in the assay with KM12 and with HT-29 was > 100 µM (inactive) each time. For the same compound, the GI50 in the assay on 786-0, in the assay on OVCAR-4, in the assay on OVCAR-3, in the assay on UACC-62, in the assay on NCI-H23 and in the assay on TK-10 was > 100 µM (inactive) throughout. Further, the GI50 in the assay on MDA-N, in the assay with DU-145, in the assay on HL-60, in the assay with A549, in the assay on OVCAR-8 and in the assay with OVCAR-5 was > 100 µM (inactive) each time. Also, the GI50 in the assay on HOP-92 and with COLO 205 was > 100 µM (inactive) each time.
Regarding `CN1CCN([C@H]2C[C@H]3[C@@H]4CC=C5C[C@@H](O)CC[C@]5(C)[C@H]4CC[C@]3(C)[C@H]2O)CC1`, the GI50 in the assay with EKVX is > 100 µM (inactive); with NCI/ADR-RES it was > 87.7 µM (inactive); in the assay with SK-OV-3, > 100 µM (inactive); with HCT-116, 30.7 µM (inactive); with KM12, > 53.8 µM (inactive); with HT-29 it was 7.29 µM (inactive). Moreover, the GI50 in the assay on 786-0 was 17.8 µM (inactive); in the assay on OVCAR-4 it was > 41.1 µM (inactive); in the assay with OVCAR-3, > 42.1 µM (inactive); in the assay on UACC-62, > 44 µM (inactive); in the assay with NCI-H23, > 100 µM (inactive); with TK-10 it was > 100 µM (inactive). Moreover, the GI50 with MDA-N is 19 µM (inactive); in the assay with DU-145, > 100 µM (inactive); with HL-60 it was 16.8 µM (inactive); with A549, > 100 µM (inactive); in the assay on OVCAR-8, > 42.8 µM (inactive); in the assay on OVCAR-5, > 47.5 µM (inactive). Besides, the GI50 with HOP-92 is > 100 µM (inactive); in the assay on COLO 205, > 67.8 µM (inactive).
On to `COc1cc([C@@H]2c3cc4c(cc3[C@H](OC3OC5COC(C(C)C)OC5C(O)C3O)C3COC(=O)[C@@H]32)OCO4)cc(OC)c1OC` (stereo not given in full), for which the GI50 was 10.2 µM (inactive) in the assay with EKVX; 3.19 µM (inactive) in the assay with NCI/ADR-RES; 6.32 µM (inactive) in the assay with SK-OV-3; 2.83 µM (inactive) in the assay with HCT-116; 3.61 µM (inactive) with KM12; 2.54 µM (inactive) in the assay with HT-29. Also, the GI50 was 2.58 µM (inactive) in the assay with 786-0; 16.6 µM (inactive) in the assay on OVCAR-4; 2.62 µM (inactive) in the assay with OVCAR-3; 4.7 µM (inactive) in the assay with UACC-62; 4.55 µM (inactive) in the assay with NCI-H23; 32 µM (inactive) in the assay with TK-10. The GI50 was 2.18 µM (inactive) with MDA-N; 11.7 µM (inactive) with DU-145; 3.85 µM (inactive) in the assay with HL-60; 3.96 µM (inactive) in the assay with A549; 4.13 µM (inactive) in the assay on OVCAR-8; 10.3 µM (inactive) in the assay on OVCAR-5. Besides, the GI50 is 6.85 µM (inactive) with HOP-92 and 4.59 µM (inactive) with COLO 205.
Consider `O=C1C(Cl)=C(OCCCl)C(=O)c2c(O)ccc(O)c21`, for which the GI50 in the assay on EKVX was 18.6 µM (inactive); in the assay on NCI/ADR-RES, 15.2 µM (inactive); in the assay on SK-OV-3, 18.2 µM (inactive); in the assay on HCT-116, 0.755 µM (active); with KM12 it was 19.7 µM (inactive); with HT-29 it was 4.73 µM (inactive). Moreover, the GI50 with 786-0 was 6.58 µM (inactive); in the assay with OVCAR-4, 2.77 µM (inactive); in the assay on OVCAR-3, 2.96 µM (inactive); with UACC-62, 3.88 µM (inactive); with NCI-H23, 5.75 µM (inactive); with TK-10, 2.6 µM (inactive). The GI50 in the assay with MDA-N is 2.91 µM (inactive); in the assay with DU-145, 17.9 µM (inactive); in the assay on HL-60 it was 0.0617 µM (active); in the assay on A549, 20 µM (inactive); with OVCAR-8, 13.9 µM (inactive); with OVCAR-5, 17.7 µM (inactive). Moreover, the GI50 in the assay on HOP-92 was 1.57 µM (inactive); with COLO 205 it was 1.61 µM (inactive).
Turning to `CCCC(=O)Nc1cc(C(=O)N2C[C@H]3C[C@@]34C2=CC(=O)c2[nH]cc(C)c24)n(COC)c1`, the GI50 is 0.843 µM (active) in the assay with EKVX; 0.656 µM (active) with NCI/ADR-RES; 1.29 µM (inactive) in the assay on SK-OV-3; 0.182 µM (active) in the assay with HCT-116; 0.449 µM (active) in the assay with KM12; 0.467 µM (active) in the assay on HT-29. The GI50 in the assay on 786-0 is 0.149 µM (active); in the assay on OVCAR-4, 0.783 µM (active); in the assay on OVCAR-3, 0.0853 µM (active); with UACC-62, 0.195 µM (active); in the assay with NCI-H23, 0.0743 µM (active); in the assay with TK-10, 0.556 µM (active). Further, the GI50 in the assay with MDA-N was 0.582 µM (active); in the assay with DU-145 it was 0.116 µM (active); with HL-60, 0.045 µM (active); in the assay on A549, 1.51 µM (inactive); in the assay with OVCAR-8 it was 0.0973 µM (active); in the assay on OVCAR-5, 1.16 µM (inactive). Further, the GI50 in the assay with HOP-92 is 0.245 µM (active); in the assay on COLO 205, 0.442 µM (active).
Regarding `CO[C@H]1O[C@@H]2CO[C@@H](c3ccccc3)O[C@H]2[C@@H]2C/C=C\CCC[C@@]12O`, the GI50 with EKVX was 19.4 µM (inactive); with NCI/ADR-RES, 26.9 µM (inactive); in the assay with SK-OV-3, 29 µM (inactive); in the assay on HCT-116, 16.1 µM (inactive); in the assay on KM12, 22.5 µM (inactive); in the assay with HT-29, 17.9 µM (inactive). For the same compound, the GI50 in the assay with 786-0 is 16.7 µM (inactive); in the assay with OVCAR-4, 32.8 µM (inactive); in the assay on OVCAR-3, 16.3 µM (inactive); in the assay on UACC-62 it was 15.7 µM (inactive); in the assay on NCI-H23, 24 µM (inactive); in the assay on TK-10, 34.8 µM (inactive). The GI50 was 25.1 µM (inactive) with MDA-N; 20.7 µM (inactive) in the assay with DU-145; 19.8 µM (inactive) in the assay with HL-60; 26.9 µM (inactive) in the assay on A549; 34.1 µM (inactive) in the assay with OVCAR-8; 21.7 µM (inactive) in the assay with OVCAR-5. In addition, the GI50 was 20 µM (inactive) with HOP-92 and 17.2 µM (inactive) with COLO 205.
